These results are taken from publication PMC9130233, “An inhibitor of RORγ for chronic pulmonary obstructive disease treatment” (Scientific Reports, 2022).

The test system of data set [1] is IL-17A release in human PBMC. The data set can be described thus: IL-17A release, human PBMC, anti-CD3 + anti-CD28. It is filed as cell-based. From the text:
(§1) Inhibition of RORγ by PCCR-1 was also estimated in a functional assay by measuring the inhibition of Th17 dependent cytokine IL-17A release in human peripheral blood mononuclear cells (PBMCs), mouse splenocytes and canine PBMC stimulated with their respective anti-CD3 and anti-CD28 antibodies.
Human whole blood from healthy subjects were procured from Clinical Research Unit, Sanpada. Clinical Research Center Glenmark (Plot No. D, 508, Turbhe, TTC Industrial Area, MIDC, Sanpada, Navi Mumbai, Maharashtra 400705, India). PBMCs were isolated using heparinized blood with Ficoll Histopaque. Briefly, the cells were seeded in 96-well plate pre-coated with human anti-CD3 mAb (10 µg/mL), post 30 min of compound treatment cells were stimulated with human anti-CD28 mAb (2 µg/mL). After 72 h of culture, the supernatant was collected for Th1/Th2 cytokines; IFN-γ, IL-2, IL-4 and IL-10 and measured by ELISA. For Th17 polarization assay, the following cytokine cocktail was used: IL-1β (10 ng/ml), IL-23(10 ng/ml), IL-6 (50 ng/ml), TGF-β1 (3 ng/ml), IL-2 (20U/ml) and supernatants were used for measuring IL-17 and IL-22 by ELISA.

The test system of data set [2] is IL-17A release in canine PBMC. Nature of the data set: IL-17A release, canine PBMC, anti-CD3 + anti-CD28. The note with it: Canis lupus familiaris, anti-CD3 + anti-CD28, n = 6, read-out: Cellular activity: Canine IC50, IL-17A release. It is filed as cell-based. As for the experimental part:
as §1
Canine PBMCs were procured from Lonza (Cologue, Germany). Frozen canine PBMCs was quickly thawed in a 37 °C water bath and cells were seeded in 96-well plates coated with canine anti-CD3mAb (30 µg/mL). Cells were further treated with the compound similar to human PBMC with co-stimulation of canine anti-CD28 mAb (10 µg/mL). After 72 h of incubation the supernatant was collected for estimating canine IL-17 by ELISA.

For data set [3], the system named is IL-17 release in human neutrophils. Nature of the data set: IL-17 release, human neutrophils, PMA + ionomycin. It is filed as cell-based. The note with it: Neutrophil, n = 4, read-out: potency, IL-17 release inhibition. As for the experimental part:
The human neutrophils were isolated by Ficoll-Hypaque by centrifugation of blood from healthy subjects at 700 g for 30 min, followed by erythrocyte lysis with distilled water for 30 s. Cells were washed in PBS and post 1 h treatment with PCCR-1, cells were stimulated with 50 ng/mL PMA and 2 µg/mL Ionomycin. After 18 h the supernatant was collected for IL-17 estimation by ELISA.

Data set [4] has as its system T1, mouse RORγ.
T1 construct: RORγt-LBD region 264-516aa; made in house
The data set can be described thus: Dissociation assay, jump dilution method (TR-FRET), mouse. In kind it is binding. As for the experimental part:
To understand the inverse agonist behavior at the molecular level, interaction with the nuclear receptor RORγ was analyzed in binding assays by estimating its dissociation constant (Koff) and half-life (t1/2). The binding of a ligand stabilizes the conformation of the LBD while binding of a cofactor modifies receptor activity. Binding reversibility was evaluated by adding an excess of competing ligand in the FRET assay and evaluating the displacement of the tracer with inhibitor. Binding of the PCCR-1 with the LBD caused reduction in FRET on antibody addition forming a GST (Glutathione S-transferases) tagged RORγ-antibody complex. The dissociation assay was performed using the jump dilution method with PCCR-1 at a concentration showing maximum binding potency or IC90. The dissociation was tested on addition of an excess of a competitive ligand, the tracer.
A general note: TR-FRET usually uses a lanthanide donor and a delayed reading to cut background.

Data set [5] deals with hFXR. The data set can be described thus: Nuclear receptors: functional assay, hFXR antagonism. It is filed as cell-based, human. The note with it: nuclear receptors: functional assays. An excerpt:
Based on the homology of the ligand binding domains, 3 different isoforms of ROR (hRORα, hRORβ and hRORγ) are reported. Small variations in the LBD regions possibly lead to differences in competitive binding between the nuclear receptors of the ROR isoforms (Fig. 1b). Similar to the assessment of RORγ binding assay, TR-FRET binding assays were also used to assess the affinity of PCCR-1 for other ROR isoforms. […] This was reconfirmed in cellular functional assays for the selected isoforms and nuclear receptors using Gal4 DBD with luciferase reporter system from Indigo (PA, USA). […] In addition, both cellular agonist and antagonist effects as well as for enzyme activity were evaluated with a known reference compound for each target, using a radiolabeled method (Eurofins Cerep, France, Table 1).

Data set [6] deals with hERG (Homo sapiens, UniProt Q12809). Nature of the data set: hERG. Conditions: rated moderate. A general note: Block of hERG is tested as a sign of cardiac risk.
hERG, sequence (Q12809 whole entry): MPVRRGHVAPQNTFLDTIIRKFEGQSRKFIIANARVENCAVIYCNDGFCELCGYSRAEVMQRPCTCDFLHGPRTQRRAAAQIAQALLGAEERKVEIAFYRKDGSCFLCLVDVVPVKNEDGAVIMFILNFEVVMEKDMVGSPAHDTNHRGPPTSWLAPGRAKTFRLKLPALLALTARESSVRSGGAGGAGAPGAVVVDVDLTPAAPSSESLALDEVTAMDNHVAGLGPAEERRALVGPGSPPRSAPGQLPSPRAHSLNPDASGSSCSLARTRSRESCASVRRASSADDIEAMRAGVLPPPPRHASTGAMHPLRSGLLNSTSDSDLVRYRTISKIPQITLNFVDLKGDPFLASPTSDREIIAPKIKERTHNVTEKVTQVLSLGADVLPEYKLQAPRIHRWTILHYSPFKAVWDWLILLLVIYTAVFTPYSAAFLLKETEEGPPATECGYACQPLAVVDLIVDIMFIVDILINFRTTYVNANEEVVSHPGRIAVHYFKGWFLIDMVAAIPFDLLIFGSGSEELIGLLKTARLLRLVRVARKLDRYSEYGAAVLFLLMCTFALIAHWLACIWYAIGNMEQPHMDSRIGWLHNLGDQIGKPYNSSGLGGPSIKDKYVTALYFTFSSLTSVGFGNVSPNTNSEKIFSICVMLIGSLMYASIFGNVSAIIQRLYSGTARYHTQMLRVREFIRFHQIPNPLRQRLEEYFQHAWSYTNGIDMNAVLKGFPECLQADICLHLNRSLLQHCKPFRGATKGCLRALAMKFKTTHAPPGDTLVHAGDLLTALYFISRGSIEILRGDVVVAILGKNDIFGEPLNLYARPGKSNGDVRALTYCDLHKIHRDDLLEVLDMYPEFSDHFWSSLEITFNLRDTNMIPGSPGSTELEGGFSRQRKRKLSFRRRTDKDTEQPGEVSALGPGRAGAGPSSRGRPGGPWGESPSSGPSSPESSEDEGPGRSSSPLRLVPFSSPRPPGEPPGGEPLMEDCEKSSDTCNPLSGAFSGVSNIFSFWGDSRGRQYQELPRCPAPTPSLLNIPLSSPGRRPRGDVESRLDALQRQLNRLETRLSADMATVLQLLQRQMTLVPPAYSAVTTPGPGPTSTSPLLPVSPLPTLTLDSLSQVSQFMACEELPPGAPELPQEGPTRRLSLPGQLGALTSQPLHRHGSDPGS
Data set [7] relates to IL-17 release from COPD patient PBMCs. Nature of the data set: IL-17 release, PBMC from COPD patients. In kind it is cell-based. The note with it: Homo sapiens, TCR stimulated, n = 16, read-out: IL-17 IC50, COPD patient's sample: PBMC. Here is the method:
Whole blood and BAL samples from COPD patients were obtained from Multispecialty hospital, Mumbai post approval from ethics committee and informed consent of patients. 30–40 mL Broncho alveolar lavage (BALf) was collected per patient and stored in ice. Blood was collected in heparin vaccutainer as per approved protocol. Both the samples were processed within 2 h of collection. BALF was passed through 100-µm and 40-µm cell strainer to remove debris and mucus, the samples were centrifuged and the cells were re-suspended in RPMI 1640 complete medium. PBMCs from blood were isolated using Histopaque-1077 by density gradient centrifugation. Isolated BAL cells and PBMCs were seeded in 96 well coated with 10 µg/ml anti-CD3 and 2 µg/ml anti-CD2. Cells were further treated with different concentration of test compound for 60 min followed by stimulation with 20 µg/ml anti-CD28 and incubated for 48–72 h. The supernatant was used for estimating IL-17 by ELISA.

The test system of data set [8] is RORγt and IL-17A mRNA in human PBMC. The data set can be described thus: RT-PCR mRNA expression in TCR stimulated human PBMC. In kind it is cell-based. The note with it: PCCR-1 treated PBMCs, healthy subjects. As for the experimental part: For RT-PCR from human PBMC, 5X 10^6 PBMCs were seeded in 6well pre-coated human anti-CD3 mAb (10 µg/mL) plate, post 30 min of compound treatment cells were stimulated with human anti-CD28 mAb (2 µg/mL). After 48 h cells were pelleted, washed with PBS and total RNA was extracted using TRI reagent. 3 µg of DNase treated RNA was reverse transcribed using iScript select cDNA synthesis kit (Biorad Hercules, CA, USA) to produce single-stranded cDNA. RT-PCR was performed with an real-time thermal cycler Eppendorf Mastercycler Ep (Eppendorf AG, Hamburg, Germany) using iTaq SYBR Green Supermix with ROX kit (Biorad Hercules, CA, USA) with human IL-17A specific primers: 5’- […]-3’(sense primer) and 5'-[…]-3' (antisense primer) and human RORγt specific primers: 5’-[…]-3’ (sense primer) and 5’-[…]-3’ (antisense primer). RT-PCR reaction was carried out for 40 cycles at 95 °C for 15 s, 60 °C for 15 s and 60 °C for 40 s. Data was interpreted using 2(-∆CT) Livak method of analysis.

SMILES strings stand for the structures. pIC50: −log10 of the molar value. Read-outs that look alike come from different tables or passages of the source.

`CCn1c(C(C)(C)Oc2ccc(F)cc2F)nc2cc(NC(=O)Cc3ccc(S(=O)(=O)CC)cc3)ccc21` [PCCR-1]: the pIC50 in data set [1] (TCR activating conditions, comparative Th1/Th2/Th17 study (Fig. 3A), read-out: hIL-17 (IL-17A) IC50) is 7.03; in data set [1] (anti-CD3 + anti-CD28, n = 24 (Fig. 1D), read-out: Cellular activity: Human IC50, IL-17A release) it was 6.93; in data set [2] it was 6.30; in data set [3] it was 5.44; in data set [6], 5.22; in data set [7] it was 6.47. For the same compound, the “dissociation from the target protein” value in data set [4] (mouse RORγ, jump dilution) is reported as 20–25%. The “t1/2 (target residence time)” value in data set [4] (mouse RORγ, jump dilution, PCCR-1 at IC90) turned out to be 4.69 h. Besides, in data set [4] (mouse, till 3 h of measurement), the absolute dissociation was 50%. Moreover, the “hFXR (antagonism)” value in data set [5] is listed as approximately 10 µM. The “IL-17A mRNA expression” value in data set [8] is recorded as “significantly inhibited”. Also, in data set [8], the “RORγt mRNA expression” value was “downregulation”.
